What was measured:
[1] = system: TNFα; test: TNFα levels in LPS-stimulated human macrophages by ELISA; assay type: cell-based; conditions: LPS (1 μg/mL) stimulated human macrophages, supernatant after 4 hours
Procedure: Assay 3: TNFα Levels in LPS-Stimulated (1 μg/ml) Human Macrophages Following Treatment with Compound M1 was Estimated by ELISA.
Isolation of Human PBMCs (Peripheral Blood Mononuclear Cells)
The second layer from the top, the buffy coat, was collected carefully with a serological pipette and placed in a new 50 ml centrifuge tube. The volume was made up to 50 mL with 1×PBS and centrifuged at 250×g for 10 min at room temperature. • The supernatant was discarded and red blood cells (RBCs) were resuspended with 5 mL ACK lysis buffer to facilitate RBC lysis and left at room temperature for 5 min. The tube was filled up with 1×PBS and centrifuged at 250×g for 10 min at room temperature. • The supernatant was discarded and the pellet was re-suspended in 5 mL of RPMI complete media. • Cells were counted on a haemocytometer. […] Assay Protocol • Cells were scraped and centrifuged at 250×g for 8 mins and cell concentration was determined. • 0.2×10^6 human macrophages were plated/well in a 96-well plate in RPMI CM with 50 ng/mL of Human M-CSF-1 and incubated overnight at 37° C. and 5% CO2. • Human macrophages were treated with compound M1 for 1 hour followed by addition of LPS (1 μg/mL).
Fold change was calculated, and graphs were plotted using GraphPad Prism. TNFα cytokine levels measured in LPS stimulated human macrophages supernatants were reduced by 75% following treatment with compound M1.

[2] = target: SIK3 (human) (Homo sapiens, UniProt Q9Y2K2); test: Enzymatic radiometric assay against human salt-inducible kinase-3 (SIK3); assay type: biochemical
Procedure: Assay 1: Determination of IC50 of Compound M1 Against Human Salt-Inducible Kinase-3 (SIK3) Using an Enzymatic Radiometric Assay
• SIK3 (human) was incubated with 8 mM MOPS pH 7.0, 0.2 mM EDTA, 100 uM of the peptide […] (Substrate), 10 mM Mg Acetate and [gamma-33P-ATP] (specific activity and concentration as required) in the presence of Compound M1. • The reaction was initiated by the addition of the Mg/ATP mix. • After incubation for 40 minutes at room temperature, the reaction was stopped by the addition of phosphoric acid to a concentration of 0.5%. • 10 μL of the reaction mixture was then spotted onto a P30 filtermat and washed four times for 4 minutes in 0.425% phosphoric acid and once in methanol prior to drying and scintillation counting. • The IC50 value was calculated using GraphPad Prism.

[3] = system: TNFα mRNA; test: TNFα mRNA expression in LPS-stimulated mouse bone marrow derived macrophages (real-time PCR); assay type: cell-based; conditions: LPS (1 μg/ml) stimulated mouse BMDM; 1 μM Compound M1 vs 1 μM dasatinib (FIG. 2A)
Procedure: Assay 2: Evaluation of mRNA Expression Levels of IL-10, TNFα, and Arginase-1 in LPS-Stimulated (1 μg/ml) Mouse Bone Marrow Derived Macrophages (BMDM).
Mouse-Bone Marrow Cell Isolation
• Femur bones from healthy mice were collected taking all aseptic precautions. • Bones were severed proximal to each joint using sterile scissors. • A 10 ml syringe with 25-G needle was filled with cold sterile wash medium (DMEM/F12 medium+10% FBS (fetal bovine serum)+1% Penicillin-streptomycin). • The needle was inserted into bone marrow cavity of femur and the cavity was flushed with 2-5 mL of wash medium, until the bone cavity appeared white. • Wash medium was collected in a 50 mL tube and centrifuged at 500×g for 10 minutes at room temperature. • Cells were resuspended in DMEM/F12 medium and cell count was taken. […]
Fold change in the mRNA expression was calculated by 2^−ΔΔCt method and data was plotted using GraphPad Prism.

[4] = system: MV-4-11 cell lines; test: MTT cell growth inhibition, single agent or combination, MV-4-11; assay type: cell-based; conditions: combined with azacytidine or ventoclax, 72 hrs
Procedure: Assay 4: Compound M1 as a Single Agent or in Combination with Azacytidine, or Venetoclax was Determined in the AML Lines: THP-1, U937, and MV-4-11.
Day 0 • The cells were pelleted and counted. • Cells were plated at desired density (100 μl/well) in complete media in a 96-well plate in triplicates. A column for Day “0” reading was also seeded (18-20 hrs after initial plating and before addition of the inhibitors) • Plates were incubated at 37° C. and 5% CO2. Day 1 • 10 μl of MTT (5 mg/ml) were added to the column designated for Day “0”. It was mixed well and incubated at 37° C. and 5% CO2 for 3.5 h. Cells were pelleted down at 4000 rpm for 10 minutes. • Media was aspirated out and 150 μl of DMSO were added to the cells and mixed by pipetting to dissolve the crystals • Plate was read at A560 nm and A640 nm. […] Crystals were dissolved by repeated pipetting. • The plate was read at A560 nm and A640 nm. […]
Reference absorbance values were subtracted from test absorbance values. Day 0 values were subtracted from final day absorbance values for determining cell growth. Percent cell growth inhibitions were calculated.

Sequence of SIK3 (human) (Q9Y2K2 whole entry): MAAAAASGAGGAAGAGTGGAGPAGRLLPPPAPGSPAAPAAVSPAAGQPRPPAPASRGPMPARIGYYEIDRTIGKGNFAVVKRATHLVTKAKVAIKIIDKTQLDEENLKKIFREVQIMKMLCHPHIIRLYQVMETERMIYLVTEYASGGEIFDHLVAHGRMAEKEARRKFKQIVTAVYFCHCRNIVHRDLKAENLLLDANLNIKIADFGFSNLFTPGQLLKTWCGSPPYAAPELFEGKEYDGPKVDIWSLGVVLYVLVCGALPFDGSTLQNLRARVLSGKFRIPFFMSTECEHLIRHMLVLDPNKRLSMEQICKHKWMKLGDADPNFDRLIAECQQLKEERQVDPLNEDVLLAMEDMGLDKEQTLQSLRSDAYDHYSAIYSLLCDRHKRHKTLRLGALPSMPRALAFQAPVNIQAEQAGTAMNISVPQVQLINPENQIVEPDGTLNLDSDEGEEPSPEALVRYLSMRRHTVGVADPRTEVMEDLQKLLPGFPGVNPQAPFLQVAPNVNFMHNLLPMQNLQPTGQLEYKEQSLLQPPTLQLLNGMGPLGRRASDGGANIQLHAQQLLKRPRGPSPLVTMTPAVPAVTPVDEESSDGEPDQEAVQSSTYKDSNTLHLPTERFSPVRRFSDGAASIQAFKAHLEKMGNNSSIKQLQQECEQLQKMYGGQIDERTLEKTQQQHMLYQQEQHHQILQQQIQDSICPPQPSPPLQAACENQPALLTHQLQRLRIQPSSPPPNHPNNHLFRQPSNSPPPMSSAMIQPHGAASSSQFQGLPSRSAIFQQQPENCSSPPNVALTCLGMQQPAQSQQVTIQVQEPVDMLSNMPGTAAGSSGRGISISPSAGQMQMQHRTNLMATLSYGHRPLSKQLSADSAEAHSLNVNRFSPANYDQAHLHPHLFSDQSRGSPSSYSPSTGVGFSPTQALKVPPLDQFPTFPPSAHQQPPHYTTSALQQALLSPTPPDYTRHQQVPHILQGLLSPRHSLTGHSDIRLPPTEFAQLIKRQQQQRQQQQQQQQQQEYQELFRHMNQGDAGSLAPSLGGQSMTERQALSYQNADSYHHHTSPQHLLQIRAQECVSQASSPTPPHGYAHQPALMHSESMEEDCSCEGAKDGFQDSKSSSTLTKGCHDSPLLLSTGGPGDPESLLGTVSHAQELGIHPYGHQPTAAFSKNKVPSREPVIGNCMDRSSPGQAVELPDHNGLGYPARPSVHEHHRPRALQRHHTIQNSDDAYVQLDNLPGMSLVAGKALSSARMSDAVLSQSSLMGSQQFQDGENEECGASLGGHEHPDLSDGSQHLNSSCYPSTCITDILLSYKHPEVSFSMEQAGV

## CC[C@H](Nc1ncnc2[nH]c(O)nc12)c1oc2ccccc2c(=O)c1-c1cccc(F)c1 [Compound M1, (S)-3-(3-fluorophenyl)-2-(1-((8-hydroxy-9H-purin-6-yl)amino)propyl)-4H-chromen-4-one]
[1]
  reduction of TNFα cytokine levels in supernatants: 75%
[2]
  activity against salt-inducible kinase 3 (SIK3): exhibit activity
[2]; of the three compounds M, M1 and M2
  SIK-3 inhibitory potency compared among compounds M, M1 and M2: most potent SIK-3 inhibitor
[3]
  TNFα mRNA expression, potency relative to dasatinib: more potent than dasatinib
[4]
  cell growth inhibition in combination: synergistic activity

From patent US12428422B2, “Purine derivatives as SIK-3 inhibitors” (RHIZEN PHARMACEUTICALS AG, priority 2020, dated 2025)
